No end group written: not given here.
Columns and labels:
[1] = system: Crlj:W1 male rats at four weeks old; assay: Bone formation in growth cartilage and primary cancellous bone, 7-day oral administration; format: in vivo, rat; conditions: seven days
Description: One of the synthetic peptides (No. 1) or water for injection (control) was administered to Crlj:W1 male rats at four weeks old by oral gavage using a gastric tube once a day for seven days (n=3 in each group). The dose of the synthetic peptide (No. 1) was 100 mg/kg-day. As a positive control, human growth hormone (hGH) (Norditropin, Standard Commodity Classification No. of Japan: 872412) was subcutaneously administered at 500 μg/kg-day once a day for seven days. As fluorescent labels for the site of bone formation, tetracycline (20 mg/kg) was subcutaneously administered on day 4 after the administration of the peptide or control, and then calcein (10 mg/kg) was subcutaneously administered on day 6 after the administration of the peptide or control. After the administration of the test sample on day 7, the rats were kept under fasting conditions. Twenty-four hours later, the blood was collected. The rats were then euthanized by bloodletting under anesthesia, and the tibiae were harvested (see FIG. 16). Non-decalcified specimens of the proximal tibiae were prepared and photographed under a fluorescent microscope (BX-53, OLYMPUS). The bone morphology was measured using a morphometry system (Histometry RT digitizer, System Supply Co., Ltd.) and an analysis software (CSS-840 cancellous bone morphometry version, System Supply Co., Ltd.). The longitudinal growth rate (Lo.G.R.) in the growth cartilage, which is the increase in the height per day, was determined by measuring the distance between the tetracycline label and the calcein label, and dividing the distance by the administration interval between the fluorescent labels (two days).
The increase in the level of IGF-1, which is related to growth of the bones and muscles in a growth phase, may contribute to the bone growth-promoting effect.

[2] = system: Crlj:W1 male rats at four weeks old; assay: Bone formation in growth cartilage and secondary cancellous bone, 21-day oral administration; format: in vivo, rat; conditions: 21 days
Description: One of the synthetic peptides (No. 1) or water for injection (control) was administered to Crlj:W1 male rats at four weeks old by oral gavage using a gastric tube once a day for 21 days (n=3 in each group). The dose of the synthetic peptide was 100 mg/kg·day. As a positive control, human growth hormone (hGH) (Norditropin, Standard Commodity Classification No. of Japan: 872412) was subcutaneously administered at 500 μg/kg·day once a day for 21 days. As fluorescent labels for the site of bone formation, tetracycline (20 mg/kg) was subcutaneously administered on day 18 after the administration of the peptide or control, and then calcein (10 mg/kg) was subcutaneously administered on day 20 after the administration of the peptide or control. After the administration of the test sample on day 21, the rats were kept under fasting conditions. Twenty-four hours later, the rats were euthanized by bloodletting under anesthesia, and the tibiae were harvested (see FIG. 20). Non-decalcified specimens of the proximal tibiae were prepared and photographed under a fluorescent microscope (BX-53, OLYMPUS). The bone morphology was measured using a morphometry system (Histometry RT digitizer, System Supply Co., Ltd.) and an analysis software (CSS-840 cancellous bone morphometry version, System Supply Co., Ltd.). The longitudinal growth rate (Lo.G.R.) in the epiphyseal cartilage, which is the increase in the height per day, was determined by measuring the distance between the tetracycline label and the calcein label, and dividing the distance by the administration interval between the fluorescent labels (two days).

[3] = system: mouse-derived chondrogenic cell line ATDC5; assay: Chondrocyte growth-promoting activity (Cell Counting Kit-8); format: cell-based; conditions: 10 nmol/mL; 72 hours; relative to control taken as 100%; FIG. 14
Description: This study was performed using mouse-derived chondrogenic cell line ATDC5 (RIKEN BANK, RBC0565). ATDC5 cells in the logarithmic growth phase were suspended at 3×10^4 cells/mL in Eagle MEM medium supplemented with 5% FCS (fetal calf serum), and 100 μL of the cell suspension was seeded in each well of a 96-well plate and precultured at 5% CO2 and 95% air at 37° C. On the next day, the medium in each well was removed, and medium containing the synthetic peptide (No. 1 or No. 6) at 10 nmol/mL was added. The cells were cultured for 72 hours. As a control, medium without a synthetic peptide was added. The reaction solution ([…]) of Cell Counting Kit-8 (Dojindo Laboratories) was added to each well. The plate was incubated for 3 hours, and the absorbance at 450 nm was measured with a microplate reader. The activity of the synthetic peptides for promoting the growth of chondrocytes was expressed in terms of the relative value, with the absorbance (growth rate) in the control group taken as 100%.

[4] = system: mature female rats (eight months old); assay: Bone formation-promoting effect in mature rats; format: in vivo, rat; conditions: 20 weeks
Description: Synthetic peptide No. 1 was administered to mature female rats (eight months old, ten rats in each group) by oral gavage using a gastric tube once a day for 20 weeks. The dose of the synthetic peptide was 1, 10 or 100 mg/kg·day.

[5] = system: mouse-derived cell line ATDC5; assay: Hyaluronic acid production-promoting activity (ELISA of culture supernatant); format: cell-based; conditions: 10 nmol/mL; supernatant after 48 hours of culture; FIG. 15
Description: This study was performed using the mouse-derived cell line ATDC5 as used in Example 4. ATDC5 cells in the logarithmic growth phase were seeded at 2×10^4 cells/mL per well in a 24-well plate containing DMEM/F-12 (1:1) medium supplemented with 5% FCS (fetal calf serum), 10 μg/mL transferrin and 3×10^−8 M sodium selenite. The cells were precultured at 5% CO2 and 95% air at 37° C. On the next day, the medium in each well was removed, and medium containing the synthetic peptide (No. 1 or No. 6) at 10 nmol/mL was added. The cells were cultured for […]. As a control, medium without a synthetic peptide was added. After 48 hours of culture, the culture supernatants were collected, and their hyaluronic acid concentrations were measured using QnE Hyaluronic Acid ELISA Assay (Biotech Trading Partners). The concentrations of hyaluronic acid in the culture supernatants of the synthetic peptide addition group were calculated by subtracting the absorbance of the background from the absorbance of the supernatants, and fitting the resulting values to the reference curve prepared using the standard.

[6] = No. 1 oral 1, 10 or 100 mg/kg·day, alendronate 300 μg/kg subcutaneous, vs control group

## VNPESEEE [No. 1]
[1]; No. 1 oral 100 mg/kg-day, hGH 500 μg/kg-day subcutaneous, ELISA, FIG. 19
  serum level of insulin-like growth factor (IGF-1): higher than that in the control group
[1]; No. 1 oral 100 mg/kg-day, hGH 500 μg/kg-day subcutaneous, FIG. 17
  longitudinal growth rate (Lo.G.R.) in the growth cartilage, vs control group: significant promotion of bone growth as compared with the control group
[1]; oral 100 mg/kg-day, FIG. 17
  longitudinal growth rate (Lo.G.R.) in the growth cartilage, vs hGH administration group: significant as compared with the hGH administration group
[1]; oral 100 mg/kg-day, vs control group and hGH group, FIG. 18
  incorporation of the fluorescent labels into the primary cancellous bone: high frequency of incorporation of the fluorescent labels into the primary cancellous bone
[2]; No. 1 oral 100 mg/kg·day, hGH 500 μg/kg·day subcutaneous, FIG. 21
  longitudinal growth rate (Lo.G.R.) in the epiphyseal cartilage, vs control group: significant promotion of bone growth as compared with the control group
[2]; oral 100 mg/kg·day, FIG. 21
  longitudinal growth rate (Lo.G.R.) in the epiphyseal cartilage, vs hGH administration group: significant as compared with the hGH administration group
[2]; oral 100 mg/kg·day, FIG. 22
  secondary cancellous bone volume (bone volume/tissue volume (BV/TV)): higher secondary cancellous bone volume than the control group and the hGH administration group
[2]; oral 100 mg/kg·day, FIG. 23
  osteoblast surface/bone surface (Ob.S/BS): high percentage
[2]; oral 100 mg/kg·day, FIG. 24
  osteoclast surface/Bone surface (Oc.S/BS): low percentage
[3]
  chondrocyte growth-promoting activity: showed chondrocyte growth-promoting effect
[4]
  levels of the increases (femur bone density, cancellous bone volume) compared with alendronate: comparable to those in the alendronate administration group
[4]; [6]
  bone density in the femurs: significantly increased
  cancellous bone volume in the proximal tibial metaphysis: significantly increased
[5]
  hyaluronic acid production-promoting activity (hyaluronic acid concentration in culture supernatant): showed hyaluronic acid production-promoting effect
